{"source": "patent US20240226228A1", "about": "“ANTIMICROBIAL PEPTOID HAVING IMPROVED SELECTIVITY AND ANTIMICROBIAL COMPOSITION COMPRISING SAME” (priority 2021, published 2024)", "key": {"E. coli ATCC25922": {"tested_on": "E. coli ATCC25922", "summary_of_the_method": "(§1)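 Cation-adjusted MHB2 cultures (18 h, subcultured 4 h) adjusted to 2×10^5–5×10^5 CFU/mL in medium with 0.02% BSA and 0.001% acetic acid.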"}, "S. aureus ATCC 25923": {"tested_on": "S. aureus ATCC 25923", "summary_of_the_method": "as §1"}, "red blood cells": {"tested_on": "red blood cells", "assay": "Hemolysis assay", "type": "cell-based, Sprague-Dawley mouse", "summary_of_the_method": "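Peptoid is mixed with 10% (v/v) PBS-washed erythrocytes (male Sprague-Dawley […], 13 weeks) and held 1 h at 37 °C. Hemolysis is calculated from 540 nm absorbance of the supernatant, with PBS as 0% and Triton X-100 as 100%.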"}, "[1]": {"conditions": "Table 18, TFA salt vs counter ion-substituted (HCl, AcOH) peptoids"}, "[2]": {"conditions": "Tables 11-13, 24 hours at 37° C., maximum concentration 25 μM"}}, "note": "Read-outs that look alike come from different tables or passages of the source. Where a SMILES comes first, the peptide text is derived from it. [ ]: non-standard residue; d: D form. Gly(N(CH2)2(3-indolyl)) = O=C(O)CNCCc1c[nH]c2ccccc12; Nspe = C[C@H](NCC(=O)O)c1ccccc1; Nphe = O=C(O)CNCc1ccccc1; Nlys = NCCCCNCC(=O)O", "data": [{"molecule": "C[C@@H](c1ccccc1)N(CC(=O)N(CCCCN)CC(=O)N(CC(=O)N(CC(=O)N(CCCCN)CC(=O)N(CC(=O)N(CC(=O)N(CCCCN)CC(N)=O)[C@@H](C)c1ccccc1)[C@@H](C)c1ccccc1)[C@@H](C)c1ccccc1)[C@@H](C)c1ccccc1)C(=O)CN(C(=O)CN(CCCCN)C(=O)CN(CCc1c[nH]c2ccccc12)C(=O)CNCCc1c[nH]c2ccccc12)[C@@H](C)c1ccccc1", "note": "[Peptoid 37-1] (H-[Gly(N(CH2)2(3-indolyl))][Gly(N(CH2)2(3-indolyl))][Nlys][Nspe][Nspe][Nlys][Nspe][Nspe][Nlys][Nspe][Nspe][Nlys]-NH2)", "values": [{"measurement": "MIC E. coli ATCC25922", "setting": "E. coli ATCC25922; [1]", "result": 6.3, "unit": "µM"}, {"measurement": "MIC S. aureus ATCC 25923", "setting": "S. aureus ATCC 25923; [1]", "result": 3.1, "unit": "µM"}, {"measurement": "HC10", "setting": "red blood cells", "result": 14.4, "unit": "µM"}, {"measurement": "HC50", "setting": "red blood cells", "result": 56.5, "unit": "µM"}, {"measurement": "Hmax (100 μM)", "setting": "red blood cells", "result": "86.6 ± 5.7", "unit": "%"}]}, {"molecule": "C[C@@H](c1ccccc1)N(CC(=O)N(CCCCN)CC(=O)N(CC(=O)N(CC(=O)N(CCCCN)CC(=O)N(CC(=O)N(CC(=O)N(CCCCN)CC(N)=O)[C@@H](C)c1ccccc1)[C@@H](C)c1ccccc1)[C@@H](C)c1ccccc1)[C@@H](C)c1ccccc1)C(=O)CN(C(=O)CN(CCCCN)C(=O)CN(CCc1c[nH]c2ccccc12)C(=O)CNCCc1c[nH]c2ccccc12)[C@@H](C)c1ccccc1", "note": "[Peptoid 37-2] (H-[Gly(N(CH2)2(3-indolyl))][Gly(N(CH2)2(3-indolyl))][Nlys][Nspe][Nspe][Nlys][Nspe][Nspe][Nlys][Nspe][Nspe][Nlys]-NH2)", "values": [{"measurement": "MIC E. coli ATCC25922", "setting": "E. coli ATCC25922; [1]", "result": 6.3, "unit": "µM"}, {"measurement": "MIC S. aureus ATCC 25923", "setting": "S. aureus ATCC 25923; [1]", "result": 1.6, "unit": "µM"}, {"measurement": "HC10", "setting": "red blood cells", "result": 12.5, "unit": "µM"}, {"measurement": "HC50", "setting": "red blood cells", "result": 26.0, "unit": "µM"}, {"measurement": "Hmax (100 μM)", "setting": "red blood cells", "result": "98.9 ± 8.0", "unit": "%"}]}, {"molecule": "C[C@@H](c1ccccc1)N(CC(=O)N(CCCCN)CC(=O)N(CCCCN)CC(=O)N(CC(=O)N(CC(=O)N(CCCCN)CC(=O)N(CC(=O)N(CC(=O)N(CCCCN)CC(N)=O)[C@@H](C)c1ccccc1)[C@@H](C)c1ccccc1)[C@@H](C)c1ccccc1)[C@@H](C)c1ccccc1)C(=O)CN(CCCCN)C(=O)CN(CCc1c[nH]c2ccccc12)C(=O)CNCCc1c[nH]c2ccccc12", "note": "[Peptoid 38] (H-[Gly(N(CH2)2(3-indolyl))][Gly(N(CH2)2(3-indolyl))][Nlys][Nspe][Nlys][Nlys][Nspe][Nspe][Nlys][Nspe][Nspe][Nlys]-NH2)", "values": [{"measurement": "MIC E. coli ATCC25922", "setting": "E. coli ATCC25922; [2]", "result": 12.5, "unit": "µM"}, {"measurement": "MIC S. aureus ATCC 25923", "setting": "S. aureus ATCC 25923; [2]", "result": 6.3, "unit": "µM"}, {"measurement": "HC10", "setting": "red blood cells", "result": ">100/>100 μM"}, {"measurement": "HC50", "setting": "red blood cells", "result": ">100/>100 μM"}, {"measurement": "Hmax (100 μM)", "setting": "red blood cells", "result": "5.9 ± 0.5", "unit": "%"}]}, {"molecule": "C[C@@H](c1ccccc1)N(CC(=O)N(CCCCN)CC(=O)N(CC(=O)N(CC(=O)N(CCCCN)CC(=O)N(CCCCN)CC(=O)N(CC(=O)N(CCCCN)CC(=O)N(CCc1c[nH]c2ccccc12)CC(=O)N(CCc1c[nH]c2ccccc12)CC(N)=O)Cc1ccccc1)[C@@H](C)c1ccccc1)[C@@H](C)c1ccccc1)C(=O)CN(C(=O)CNCCCCN)[C@@H](C)c1ccccc1", "note": "[Peptoid 39] (H-[Nlys][Nspe][Nspe][Nlys][Nspe][Nspe][Nlys][Nlys][Nphe][Nlys][Gly(N(CH2)2(3-indolyl))][Gly(N(CH2)2(3-indolyl))]-NH2)", "values": [{"measurement": "MIC E. coli ATCC25922", "setting": "E. coli ATCC25922; [2]", "result": 25, "unit": "µM"}, {"measurement": "MIC S. aureus ATCC 25923", "setting": "S. aureus ATCC 25923; [2]", "result": 6.3, "unit": "µM"}, {"measurement": "HC10", "setting": "red blood cells", "result": "100/>100 μM"}, {"measurement": "HC50", "setting": "red blood cells", "result": "100/>100 μM"}, {"measurement": "Hmax (100 μM)", "setting": "red blood cells", "result": "10.2 ± 0.3", "unit": "%"}]}, {"molecule": "C[C@@H](c1ccccc1)N(CC(=O)N(CCCCN)CC(=O)N(CCc1c[nH]c2ccccc12)CC(=O)N(CCc1c[nH]c2ccccc12)CC(N)=O)C(=O)CN(CCCCN)C(=O)CN(CCCCN)C(=O)CN(Cc1ccccc1)C(=O)CN(Cc1ccccc1)C(=O)CN(CCCCN)C(=O)CN(C(=O)CN(C(=O)CNCCCCN)[C@@H](C)c1ccccc1)[C@@H](C)c1ccccc1", "note": "[Peptoid 40] (H-[Nlys][Nspe][Nspe][Nlys][Nphe][Nphe][Nlys][Nlys][Nspe][Nlys][Gly(N(CH2)2(3-indolyl))][Gly(N(CH2)2(3-indolyl))]-NH2)", "values": [{"measurement": "MIC E. coli ATCC25922", "setting": "E. coli ATCC25922; [2]", "result": 12.5, "unit": "µM"}, {"measurement": "MIC S. aureus ATCC 25923", "setting": "S. aureus ATCC 25923; [2]", "result": 12.5, "unit": "µM"}, {"measurement": "HC10", "setting": "red blood cells", "result": ">100/>100 μM"}, {"measurement": "HC50", "setting": "red blood cells", "result": ">100/>100 μM"}, {"measurement": "Hmax (100 μM)", "setting": "red blood cells", "result": "8.9 ± 0.2", "unit": "%"}]}, {"molecule": "C[C@@H](c1ccccc1)N(CC(=O)N(CCCCN)CC(=O)N(CCc1c[nH]c2ccccc12)CC(=O)N(CCc1c[nH]c2ccccc12)CC(N)=O)C(=O)CN(CCCCN)C(=O)CN(CCCCN)C(=O)CN(C(=O)CN(C(=O)CN(CCCCN)C(=O)CN(Cc1ccccc1)C(=O)CN(Cc1ccccc1)C(=O)CNCCCCN)[C@@H](C)c1ccccc1)[C@@H](C)c1ccccc1", "note": "[Peptoid 41] (H-[Nlys][Nphe][Nphe][Nlys][Nspe][Nspe][Nlys][Nlys][Nspe][Nlys][Gly(N(CH2)2(3-indolyl))][Gly(N(CH2)2(3-indolyl))]-NH2)", "values": [{"measurement": "MIC E. coli ATCC25922", "setting": "E. coli ATCC25922; [2]", "result": 25, "unit": "µM"}, {"measurement": "MIC S. aureus ATCC 25923", "setting": "S. aureus ATCC 25923; [2]", "result": 6.3, "unit": "µM"}, {"measurement": "HC10", "setting": "red blood cells", "result": ">100/>100 μM"}, {"measurement": "HC50", "setting": "red blood cells", "result": ">100/>100 μM"}, {"measurement": "Hmax (100 μM)", "setting": "red blood cells", "result": "7.1 ± 0.1", "unit": "%"}]}, {"molecule": "C[C@@H](c1ccccc1)N(CC(=O)N(CCCCN)CC(=O)N(CC(=O)N(CC(=O)N(CCCCN)CC(=O)N(CC(=O)N(CC(=O)N(CCCCN)CC(=O)N(CC(=O)N(CC(N)=O)Cc1ccccc1)Cc1ccccc1)[C@@H](C)c1ccccc1)[C@@H](C)c1ccccc1)[C@@H](C)c1ccccc1)[C@@H](C)c1ccccc1)C(=O)CN(C(=O)CNCCCCN)[C@@H](C)c1ccccc1", "note": "[Peptoid 44] (H-[Nlys][Nspe][Nspe][Nlys][Nspe][Nspe][Nlys][Nspe][Nspe][Nlys][Nphe][Nphe]-NH2)", "values": [{"measurement": "MIC E. coli ATCC25922", "setting": "E. coli ATCC25922; [2]", "result": 6.3, "unit": "µM"}, {"measurement": "MIC S. aureus ATCC 25923", "setting": "S. aureus ATCC 25923; [2]", "result": 1.6, "unit": "µM"}, {"measurement": "HC10", "setting": "red blood cells", "result": 6.3, "unit": "µM"}, {"measurement": "HC50", "setting": "red blood cells", "result": 28.6, "unit": "µM"}, {"measurement": "Hmax (100 μM)", "setting": "red blood cells", "result": "97.9 ± 3.7", "unit": "%"}]}, {"molecule": "C[C@@H](c1ccccc1)N(CC(=O)N(CCCCN)CC(=O)N(CC(=O)N(CC(N)=O)Cc1ccccc1)Cc1ccccc1)C(=O)CN(CCCCN)C(=O)CN(CCCCN)C(=O)CN(C(=O)CN(C(=O)CN(CCCCN)C(=O)CN(C(=O)CN(C(=O)CNCCCCN)[C@@H](C)c1ccccc1)[C@@H](C)c1ccccc1)[C@@H](C)c1ccccc1)[C@@H](C)c1ccccc1", "note": "[Peptoid 45] (H-[Nlys][Nspe][Nspe][Nlys][Nspe][Nspe][Nlys][Nlys][Nspe][Nlys][Nphe][Nphe]-NH2)", "values": [{"measurement": "MIC E. coli ATCC25922", "setting": "E. coli ATCC25922; [2]", "result": ">25", "unit": "µM"}, {"measurement": "MIC S. aureus ATCC 25923", "setting": "S. aureus ATCC 25923; [2]", "result": 25, "unit": "µM"}, {"measurement": "HC10", "setting": "red blood cells", "result": ">100/>100 μM"}, {"measurement": "HC50", "setting": "red blood cells", "result": ">100/>100 μM"}, {"measurement": "Hmax (100 μM)", "setting": "red blood cells", "result": "4.5 ± 0.2", "unit": "%"}]}, {"molecule": "C[C@@H](c1ccccc1)N(CC(N)=O)C(=O)CN(C(=O)CN(CCCCN)C(=O)CN(C(=O)CN(C(=O)CN(CCCCN)C(=O)CN(C(=O)CN(C(=O)CN(CCCCN)C(=O)CN(Cc1ccccc1)C(=O)CN(Cc1ccccc1)C(=O)CNCCCCN)[C@@H](C)c1ccccc1)[C@@H](C)c1ccccc1)[C@@H](C)c1ccccc1)[C@@H](C)c1ccccc1)[C@@H](C)c1ccccc1", "note": "[Peptoid 46]", "values": [{"measurement": "MIC E. coli ATCC25922", "setting": "E. coli ATCC25922; [2]", "result": 6.3, "unit": "µM"}, {"measurement": "MIC S. aureus ATCC 25923", "setting": "S. aureus ATCC 25923; [2]", "result": 0.8, "unit": "µM"}, {"measurement": "HC10", "setting": "red blood cells", "result": 6.9, "unit": "µM"}, {"measurement": "HC50", "setting": "red blood cells", "result": 36.5, "unit": "µM"}, {"measurement": "Hmax (100 μM)", "setting": "red blood cells", "result": "90.8 ± 2.7", "unit": "%"}]}, {"molecule": "C[C@@H](c1ccccc1)N(CC(N)=O)C(=O)CN(CCCCN)C(=O)CN(CCCCN)C(=O)CN(C(=O)CN(C(=O)CN(CCCCN)C(=O)CN(C(=O)CN(C(=O)CN(CCCCN)C(=O)CN(Cc1ccccc1)C(=O)CN(Cc1ccccc1)C(=O)CNCCCCN)[C@@H](C)c1ccccc1)[C@@H](C)c1ccccc1)[C@@H](C)c1ccccc1)[C@@H](C)c1ccccc1", "note": "[Peptoid 47]", "values": [{"measurement": "MIC E. coli ATCC25922", "setting": "E. coli ATCC25922; [2]", "result": 25, "unit": "µM"}, {"measurement": "MIC S. aureus ATCC 25923", "setting": "S. aureus ATCC 25923; [2]", "result": 12.5, "unit": "µM"}, {"measurement": "HC10", "setting": "red blood cells", "result": ">100/>100 μM"}, {"measurement": "HC50", "setting": "red blood cells", "result": ">100/>100 μM"}, {"measurement": "Hmax (100 μM)", "setting": "red blood cells", "result": "4.8 ± 0.2", "unit": "%"}]}]}
